Molecules are shown by their SMILES. Where “and” joins values, the source holds several entries; their conditions need not be identical. Equal values may be shown once.

One compound from patent US8916498B2, “Safening 6-(trisubstituted phenyl)-4-amino-2-pyridinecarboxylate herbicide injury on direct seeded and transplanted paddy rice” (priority 2008, dated 2014) can be followed below.

Series [1] concerns transplanted paddy rice. The series can be described thus: Herbicidal safening in transplanted paddy rice, visual injury. It is filed as in vivo, Oryza sativa. The note with it: after 3 weeks. How it is done:
(§1) Evaluation of Herbicidal Safening in Transplanted Paddy Rice
(§2) The prepared mud was dispensed in 250 mL aliquots into 480 mL non-perforated plastic pots with a surface area of 91.6 cm^2 leaving a headspace of 3 cm in each pot. Rice seeds were planted in Sun Gro MetroMix 306 planting mixture, which typically has a pH of 6.0 to 6.8 and an organic matter content of about 30 percent, in plastic plug trays. Seedlings at the second or third leaf stage of growth were transplanted into 650 mL of mud contained in 960 mL non-perforated plastic pots with a surface area of 91.6 cm^2 four days prior to herbicide application. The paddy was created by filling the 3 cm headspace of the pots with water. […] Nutrients were added as Osmocote (17:6:10, Nitrogen:Phosphorus:Potassium (N:P:K)+minor nutrients) at 2 grams (g) per cup.
(§3) For technical grade compounds and safeners, a weighed amount, determined by the highest rate to be tested, was placed in an individual 120 mL glass vial and was dissolved in 20 mL of acetone to obtain concentrated stock solutions. […] The concentrated stock solutions obtained were diluted with 20 mL of acetone. Applications were made by injecting an appropriate amount of the stock solution into the aqueous layer of the paddy. […] All treated plant material received the same concentration of acetone and crop oil concentrate.

Another series relates to weed test plant species. The series can be described thus: Herbicidal safening in transplanted paddy rice, visual injury on weeds. Format: in vivo. The note with it: after 3 weeks; for Visual Injury (%) SCPJU Obs: Scirpus juncoides. How it is done:
as §1, §2, §3

The test system of series [2] is transplanted paddy rice. Nature of the series: Safening activity of herbicide mixtures in transplanted paddy rice. It is filed as in vivo, Oryza sativa. The method, then:
as §2, §3
Forms of compound 1 were applied on an acid equivalent basis.

`CCN(CC)CC.COc1c(Cl)ccc(-c2cc(N)c(Cl)c(C(=O)O)n2)c1F` [Compound 1 TEA Salt]: the “Visual Injury (%) ‘M202’ ORYSA Obs” value was 65% with transplanted paddy rice [1] (herbicide 70 g ae/ha alone); 70% with transplanted paddy rice [1] (herbicide 140 g ae/ha alone); 20% in the series with transplanted paddy rice [2] (compound 35 g/ha alone); 35% and 50% in the series on transplanted paddy rice [2] (compound 70 g/ha alone). Besides, the figures for the “‘M202’ ORYSA Visual Injury (%) Obs” value in the series on transplanted paddy rice [1] (herbicide 70 g ae/ha alone) and with transplanted paddy rice [1] (herbicide 140 g ae/ha alone) were 60% and 85%, respectively. Further, the “Visual Injury (%) SCPJU Obs” value with weed test plant species (herbicide 70 g ae/ha alone) and in the series with weed test plant species (herbicide 140 g ae/ha alone) was 100% throughout. For the same compound, the “Visual Injury (%) ECHCG Obs” value with weed test plant species (herbicide 70 g ae/ha alone) was determined as 99%; in the series on weed test plant species (herbicide 140 g ae/ha alone), 100%.
